Test results: the supplement of paper PMC10307832

What was measured:
Assay in all cases: relative viability (nuclei count vs DMSO), 5 days (fraction); higher = more cells survive
IPA-3 + Dasatinib = compound: C1=CC=C2C(=C1)C=CC(=C2SSC3=C(C=CC4=CC=CC=C43)O)O [IPA-3] + Cc1nc(Nc2ncc(C(=O)Nc3c(C)cccc3Cl)s2)cc(N2CCN(CCO)CC2)n1 [Dasatinib] (partner 0.075 µM)
In short: (§1)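 Five library-drug doses in √10 steps were combined with a fixed anchor-drug dose, or a single drug was given alone, by pin tool to lung cancer cell lines in 1536-well plates the day after seeding. Nuclei were stained and counted after 5 days. Relative viability is the nuclei count in treated wells over that in vehicle wells, taken as the median of duplicate plates.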

RAF265 + Phenformin = compound: Cn1c(Nc2ccc(C(F)(F)F)cc2)nc2cc(Oc3ccnc(-c4ncc(C(F)(F)F)[nH]4)c3)ccc21 [RAF265] + N=C(N)NC(=N)NCCc1ccccc1 [Phenformin] (partner 250 µM)
In short: as §1

IPA-3 + Palbociclib = compound: C1=CC=C2C(=C1)C=CC(=C2SSC3=C(C=CC4=CC=CC=C43)O)O [IPA-3] + CC(=O)c1c(C)c2cnc(Nc3ccc(N4CCNCC4)cn3)nc2n(C2CCCC2)c1=O [Palbociclib] (partner 0.5 µM)
In short: as §1

IPA-3 + Bortezomib = compound: C1=CC=C2C(=C1)C=CC(=C2SSC3=C(C=CC4=CC=CC=C43)O)O [IPA-3] + CC(C)C[C@H](NC(=O)[C@H](Cc1ccccc1)NC(=O)c1cnccn1)B(O)O [Bortezomib] (partner 0.002 µM)
In short: as §1

UMC-11
relative viability (IPA-3 + Dasatinib; first compound 0.2 µM): 0.605
relative viability (IPA-3 + Dasatinib; first compound 0.6325 µM): 0.421
relative viability (IPA-3 + Dasatinib; first compound 2 µM): 0.483
relative viability (IPA-3 + Dasatinib; first compound 6.325 µM): 0.446
relative viability (IPA-3 + Dasatinib; first compound 20 µM): 0.489
relative viability (RAF265 + Phenformin; first compound 0.01 µM): 0.354
relative viability (RAF265 + Phenformin; first compound 0.03162 µM): 0.332
relative viability (RAF265 + Phenformin; first compound 0.1 µM): 0.32
relative viability (RAF265 + Phenformin; first compound 0.3162 µM): 0.318
relative viability (RAF265 + Phenformin; first compound 1 µM): 0.259
relative viability (IPA-3 + Palbociclib; first compound 0.2 µM): 0.323
relative viability (IPA-3 + Palbociclib; first compound 0.6325 µM): 0.333
relative viability (IPA-3 + Palbociclib; first compound 2 µM): 0.312
relative viability (IPA-3 + Palbociclib; first compound 6.325 µM): 0.328
relative viability (IPA-3 + Palbociclib; first compound 20 µM): 0.337
relative viability (IPA-3 + Bortezomib; first compound 0.2 µM): 0.923
relative viability (IPA-3 + Bortezomib; first compound 0.6325 µM): 0.767
relative viability (IPA-3 + Bortezomib; first compound 2 µM): 0.845
relative viability (IPA-3 + Bortezomib; first compound 6.325 µM): 0.726
relative viability (IPA-3 + Bortezomib; first compound 20 µM): 0.986
